Where two headings read alike, the source gives them in different places.
Legend:
[1] = target: T1, CB2 receptor (Mus musculus, UniProt P47936); assay: Radioligand binding assay ([3H]CP-55,940 displacement), mouse spleen as source of CB2; conditions: for selectivity for the CB2 receptor: CB2 over CB1, statement in words
T1 construct: Mouse spleen was used a source of CB2 receptors; from tissue; host or cells: mouse spleen
Procedure: (§1) Approximately 30 μg of tissue was incubated in silanized 96 well microtiter plate with TME containing 0.1% essentially fatty acid free bovine serum albumin (BSA), 0.8 nM CH^3]CP-55,940 and various concentrations of the test compound in a final volume of 200 μL. Assays were incubated at 30° C. for 1 hour. The samples were filtered using Packard Filtermate 196 and Whatman GF/C Filterplates and washed with wash buffer (TME) containing 0.5% BSA. Radioactivity was detected using MicroScint 20 scintillation cocktail added directly to the dried filterplates, and the filterplates were counted using a Packard Instruments Top-Count. Nonspecific binding was assessed using 100 nM CP-55,940. Data collected from three independent experiments performed with duplicate determinations were normalized between 100% and 0% specific binding for [H^3]CP-55,940, determined using buffer and 100 nM CP-55,940. The normalized data was analyzed using a 4 parameter nonlinear logistic equation to yield IC50 values. Data from at least two independent experiments performed in duplicate were used to calculate IC50 values which were convered to Ki values using the assumptions of Cheng and Prusoff, Biochem. Pharmacol., 22:3099 (1973), the entire teachings of which are incorporated herein by reference.
Mouse spleen was used a source of CB2 receptors to assess binding affinity of analogs described in this invention. The CB2 binding assay was conducted in the same manner as for CB1. Silanized centrifuge tubes were used throughout to minimize receptor loss due to adsorption.

[2] = target: T2, CB1 receptor (Rattus norvegicus, UniProt P20272); assay: Radioligand binding assay ([3H]CP-55,940 displacement), rat forebrain membranes as source of CB1
T2 construct: using rat forebrain membranes as a source of CB1; from tissue; host or cells: rat forebrain (whole brain minus cerebral cortex) membranes
T2 sequence (P20272 whole entry): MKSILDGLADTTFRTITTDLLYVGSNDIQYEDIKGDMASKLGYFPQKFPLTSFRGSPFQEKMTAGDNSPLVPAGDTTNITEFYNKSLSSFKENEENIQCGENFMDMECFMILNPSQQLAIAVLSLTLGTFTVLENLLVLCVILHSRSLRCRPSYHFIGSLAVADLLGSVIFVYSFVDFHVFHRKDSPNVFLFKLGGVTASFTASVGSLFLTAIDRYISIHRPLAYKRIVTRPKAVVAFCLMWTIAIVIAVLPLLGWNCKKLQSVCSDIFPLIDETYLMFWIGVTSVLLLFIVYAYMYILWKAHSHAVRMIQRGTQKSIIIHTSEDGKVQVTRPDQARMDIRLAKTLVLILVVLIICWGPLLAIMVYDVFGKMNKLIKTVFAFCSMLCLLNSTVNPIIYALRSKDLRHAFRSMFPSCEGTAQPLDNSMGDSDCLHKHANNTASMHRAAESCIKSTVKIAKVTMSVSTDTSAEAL
Procedure: The binding affinities of the novel compounds described in this invention for the central cannabinoid receptor was assessed using rat forebrain membranes as a source of CB1. Membranes were prepared as described by the method of Dodd et al., Brain Res. 226:107 (1981), the entire teachings of which are incorporated herein by reference. Rat whole brains minus the cerebral cortex were diced with a razor blade and homogenized in 0.32 M sucrose, pH 7.4. The resulting suspension was spun at 400×g at 4° C. The supernatant was decanted and layered over 1.2 M sucrose in TME buffer (25 mM Tris base, 5 mM MgCl2 1 mMEDTA, pH 7.4) and spun at 109,000×g. The interface containing plasma membrane protein was collected, pooled and layered over 0.8 M sucrose in TME, pH 7.4. The pellet was carefully resuspended in TME, pH 7.4 and the total protein content was assayed by the method of Markwell et al., Anal. Biochem. 87:206 (1978), the entire teachings of which are incorporated herein by reference. Protein was aliquotted, frozen under liquid nitrogen and stored at −80° C. until use.
as §1

[3] = Ki for the CB2 receptor, refers to Example 2
[4] = Ki for the CB1 receptor, refers to Example 2
[5] = Ki in nM for the CB1 Receptor, rat forebrain membranes, 0.8 nM [3H]CP-55,940, Ki from IC50 by Cheng and Prusoff
[6] = Ki in nM for the CB2 Receptor, mouse spleen, [3H]CP-55,940, Ki from IC50 by Cheng and Prusoff
[7] = rat forebrain membranes, 0.8 nM [3H]CP-55,940, Ki from IC50 by Cheng and Prusoff, read-out: Ki in nM for the CB1 Receptor

T1 sequence (P47936 whole entry): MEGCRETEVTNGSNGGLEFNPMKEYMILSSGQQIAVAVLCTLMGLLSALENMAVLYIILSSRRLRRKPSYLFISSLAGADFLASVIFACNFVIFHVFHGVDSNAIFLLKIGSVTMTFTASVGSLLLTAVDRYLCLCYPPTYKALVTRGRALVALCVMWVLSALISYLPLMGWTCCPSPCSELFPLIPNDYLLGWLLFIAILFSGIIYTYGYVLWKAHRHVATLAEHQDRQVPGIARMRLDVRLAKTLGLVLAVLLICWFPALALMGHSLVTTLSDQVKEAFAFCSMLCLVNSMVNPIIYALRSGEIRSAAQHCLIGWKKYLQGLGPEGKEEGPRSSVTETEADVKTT

Structure (SMILES) | Ki [1, 3] | Ki [2, 4] | Ki [2, 5] | selectivity for the CB2 receptor [1] | Ki [1, 6] | Ki [2, 7] | other results
CCCCCc1cc(O)c2c(c1)OC(C)(C)[C@@H]1CC=C(C)C[C@@H]21 [Δ^8-tetrahydrocannabinol, reference compound] | 14 nM | – | – | – | – | – | –
CCCCCCC1(c2cc(O)c3c(c2)OC(C)(C)[C@@H]2CC=C(C)C[C@@H]32)OCCO1 [AMG14] | – | < 1 nM | 0.2 nM | – | – | – | –
CC1=CC[C@@H]2[C@@H](C1)c1c(O)cc(C3CC4CCC3(C)C4(C)C)cc1OC2(C)C (stereo partly shown) [AM732] | – | – | 20.1 nM | selective agonists | 2 nM | – | –
CCCCCCC1(c2cc(O)c3c(c2)OC(C)(C)[C@@H]2CC=C(C)C[C@@H]32)SCCS1 [AMG3] | – | < 1 nM | – | – | 1.7 nM | 0.32 nM | –
CC1=CC[C@@H]2[C@@H](C1)c1c(O)cc(C3CC4CCC3(C)C4(C)C)cc1OC2(C)C (stereo partly shown) [AM731] | < 10 nM | – | 60.6 nM | selective agonists | 6.1 nM | – | –
CC1=CC[C@@H]2[C@@H](C1)c1c(O)cc(C34CC5CC(CC(C5)C3)C4)cc1OC2(C)C [AM411] | – | – | – | – | – | 6.9 nM | Ki ([1]; mouse spleen, [3H]CP-55,940, Ki from IC50 by Cheng and Prusoff, read-out: Ki in nM for the CB2 Receptor): 52 nM; selectivity for the CB1 receptor ([2]; CB1 over CB2, statement in words): selective agonists

Source: patent US20050239874A1, “Novel analgesic and immunomodulatory cannabinoids” (University of Connecticut, priority 1998, published 2005)
